# Source: US12071469B2, “Peptide compounds for suppressing inflammation” (Duke University, priority 2011, dated 2024)
# Several values for one entry are separate records, joined by “and”; a condition that tells them apart may be missing. Identical values can stand only once.
# Tests used:
# [1] = test system: mice with intracerebral hemorrhage; experiment: Rotorod vestibulomotor function after intracerebral hemorrhage (collagenase injection); type: in vivo, mouse; conditions: 0.05 mg/kg iv at 2 h and 6 h after intracerebral hemorrhage
# Procedure: An experimental murine model for intracerebral hemorrhage was also provided. James, et al. (2009) Stroke, 40:632-39. Male mice (age 16-20 weeks) were anesthetized with 4.6% isoflurane in oxygen in an anesthesia induction box for 90 seconds. The trachea was intubated and the lungs mechanically ventilated with 1.6% isoflurane in a 70/30 mixture of nitrogen/oxygen. Body temperature was maintained at 37° C. using an underbody warming system. The animal's head was secured in a stereotactic frame, local anesthetic was injected, and the scalp incised. […]
# An experimental procedure for measuring neurological deficits was developed. […] The average time to fall from the rotating cylinder in the latter three trials was recorded as baseline latency. […] Average latency to fall from the rod was recorded, and mice unable to grip the rod were scored with a latency of 0 seconds.
# Groups of mice received either an ApoE mimetic peptide (SEQ ID NO:4; 0.05 mg/kg) or carrier (saline) by intravenous tail vein injection a 2 hours and again at 6 hours after intracerebral hemorrhage induced as described in Example 3. Each mouse was tested for vestibulomotor function by rotorod latency measured before and after induced intracerebral hemorrhage as described in Example 3.
# [2] = Mouse brain PK of VSRRR (CNS penetration) by LC/MS; type: in vivo; conditions: for Brain Pilot, Ratio to Heavy / Brain Pilot, fmol/mg (tissue) / Brain Pilot, pg/mg (tissue): individual mouse brains, single-point internal standard quantitation; for Single-Dosed Brain PK, fmol analyte/mg tissue / Single-Dosed Brain PK, pg/mg of tissue: single dose 0.8 mg/kg, average of 5 animals
# Procedure: Mouse Brain PK on Therapeutic Peptide, VSRRR—Sample Preparation Procedure
# Mice brains were weighed in a 1.5 mL Eppendorf tube. The entire brain was transferred to a 14 mL culture tube. 1 mL of 8 M urea in 50 mM ammonium formate (pH 10) with 2.5 pmol/mL SIL peptide per 100 mg wet tissue weight was added. For standard controls and QCs, 10 μL of peptide standard per every 100 mg of brain tissue (1%) was added with 990 μL of the aforementioned buffer to bring to a 1 mL total volume for every 100 mg of tissue. A tissue tearor was used on each sample for about 20 sec. 1.5 mL of the sample was transferred to a 2-mL Eppendorf tube. Each sample was probe sonicated for 3 bursts of 5 sec per burst. The sample was then heated at 37° C. for 30 min. The sample was centrifuged for 30 min at 15,000 rpm. Very little precipitate was visible at the bottom of each tube and avoided when pipetting 1 mL of the sample (out of 1.5 mL total volume) and placing directly onto an OASIS® plate. Salts and proteins were removed using the OASIS® HLB Solid Phase Extraction (SPE) protocol described above for the plasma sample. After the extraction, the samples were dried down in a Speed Vac and reconstitute in 25 μL of 1% ACN/0.1% TFA/0.02% HFBA. 3 μL of the sample was injected into a SYNAPT™ G2 HDMS™ (Waters Corp.) using Full Scan MS method, with a run time of 16.5 min total. Peptide(s) of interest were monitored between 3-8 min.
# Table 5 and FIG. 10 show the average amount of peptide in the CNS sample from 5 animals over time after a single dosing of 0.8 mg/kg of the peptide.
# The analyte concentrations were calculated from a single-point internal standard quantitation. […] The analyte concentrations were calculated from a 7-point standard curve calibration curve equation generated with samples between 1.4 pg analyte/mg tissue and 89.2 pg/mg (2× serial dilutions). The inter-animal reproducibility for the brain analyses is high ([…] 21% CV). The drug molecule in the single-dosed brain Cmax is about 9 pg analyte/mg tissue.
substance,measurement,setting,value
"Ac-VSRRR-NH2 [VR-55, Ac-VSRRR-NH2]",durability of effect on rotorod latency,[1],durable through the five-day testing period
same,vestibulomotor performance (rotorod latency) compared to carrier,[1]; FIG. 5,improved vestibulomotor performance
same,"Brain Pilot, Ratio to Heavy",[2]; 3 min,0.245 and 0.371
same,"Brain Pilot, fmol/mg (tissue)",[2]; 3 min,15 fmol/mg (tissue) and 23 fmol/mg (tissue)
same,"Brain Pilot, pg/mg (tissue)",[2]; 3 min,11 pg/mg (tissue) and 17 pg/mg (tissue)
same,"Brain Pilot, Ratio to Heavy",[2]; 10 min,0.157 and 0.435
same,"Brain Pilot, fmol/mg (tissue)",[2]; 10 min,10 fmol/mg (tissue) and 27 fmol/mg (tissue)
same,"Brain Pilot, pg/mg (tissue)",[2]; 10 min,7 pg/mg (tissue) and 19 pg/mg (tissue)
same,single-dosed brain Cmax,"[2]; mouse brain, single dose",about 9 pg analyte/mg tissue
same,"Single-Dosed Brain PK, fmol analyte/mg tissue","[2]; mouse brain, 1 min",10.91 fmol analyte/mg tissue
same,"Single-Dosed Brain PK, pg/mg of tissue","[2]; mouse brain, 1 min",7.79 pg/mg of tissue
same,"Single-Dosed Brain PK, fmol analyte/mg tissue","[2]; mouse brain, 3 min",12.30 fmol analyte/mg tissue
same,"Single-Dosed Brain PK, pg/mg of tissue","[2]; mouse brain, 3 min",8.79 pg/mg of tissue
same,"Single-Dosed Brain PK, fmol analyte/mg tissue","[2]; mouse brain, 5 min",11.26 fmol analyte/mg tissue
same,"Single-Dosed Brain PK, pg/mg of tissue","[2]; mouse brain, 5 min",8.04 pg/mg of tissue
same,"Single-Dosed Brain PK, fmol analyte/mg tissue","[2]; mouse brain, 10 min",11.83 fmol analyte/mg tissue
same,"Single-Dosed Brain PK, pg/mg of tissue","[2]; mouse brain, 10 min",8.44 pg/mg of tissue
same,"Single-Dosed Brain PK, fmol analyte/mg tissue","[2]; mouse brain, 15 min",10.56 fmol analyte/mg tissue
same,"Single-Dosed Brain PK, pg/mg of tissue","[2]; mouse brain, 15 min",7.54 pg/mg of tissue
same,"Single-Dosed Brain PK, fmol analyte/mg tissue","[2]; mouse brain, 30 min",8.87 fmol analyte/mg tissue
same,"Single-Dosed Brain PK, pg/mg of tissue","[2]; mouse brain, 30 min",6.33 pg/mg of tissue
same,"Single-Dosed Brain PK, fmol analyte/mg tissue","[2]; mouse brain, 60 min",7.64 fmol analyte/mg tissue
same,"Single-Dosed Brain PK, pg/mg of tissue","[2]; mouse brain, 60 min",5.46 pg/mg of tissue
same,CNS penetration,"[2]; preliminary data, brain pilot",CNS penetration
